Experimental data taken from patent US20120329761A1, “USE OF TIGECYCLINE FOR TREATMENT OF CANCER” (UNIVERSITY HEALTH NETWORK, priority 2010, published 2012).

Legend:
[1] = tested on: primary normal hematopoietic cells (PBSC); test: Cell death by Annexin V staining, 48 hours; assay type: cell-based, human; details: normal PBSC from G-CSF mobilized donors, n=5, 48 hours
Method: (§1) FIG. 2. Tigecycline induces cell death and inhibits clonogenic growth in primary AML cells preferential over normal hematopoietic cells. Mononuclear cells from peripheral blood of leukemia patients (blast count >80%) and normal G-CSF expanded donors was treated with increasing concentrations of tigecycline for 48 hours. Cell viability was measured by Annexin-PI flow cytometry staining. Cell viability is expressed as a mean percentage plus or minus SD (n=3) relative to DMSO-treated cells. Mononuclear cells from primary AML patient samples (A, B) and normal peripheral blood cells (C) were plated in methylcelluose with 5 μM of Tigecycline. (D) Colony forming units were counted at 7 days (AML) and 14 days (Normal) post plating. Percent colony formation is represented compared to DMSO-treated plated cells.
(§2) Primary human acute myeloid leukemia (AML) samples were isolated from fresh peripheral blood samples of consenting patients with AML. Similarly, primary normal hematopoietic cells were obtained from healthy consenting volunteers donating peripheral blood […] (PBSC) for stem cell transplantation. The mononuclear cells were isolated from the samples by Ficoll density centrifugation. Primary cells were cultured at 37° C. in IMDM supplemented with 20% FCS, 1 mM of L-glutamine and appropriate antibiotics. […]
(§3) Cell growth and viability was assessed by the MTS assay (Promega, Madison, Wis.) according to the manufacturer's instructions. Apoptosis and cell death was measured by Annexin V-fluoroscein isothiocyanate (FITC; Biovision Research Products, Mountain View, Calif.), propidium iodide staining and flow cytometry according to the manufacturer's instructions and as previously described^30.
(§4) Given the cytotoxicity of tigecycline towards leukemia cell lines, the ability of tigecycline to induce cell death in primary acute myeloid leukemia (AML) patient samples and normal hematopoietic cells was compared and evaluated. […] After incubation, cell viability was measured by Annexin V staining.

[2] = tested on: primary AML patient samples; test: Cell death by Annexin V staining, 48 hours; assay type: cell-based, human
Method: as §1, §2, §3, §4

[3] = tested on: Cox-1, Cox-2, and Cox-4 mRNA; test: Quantitative RT-PCR of Cox mRNA; assay type: cell-based, human; details: TEX and primary AML cells, 2.5 μM and 5 μM
Method: FIG. 4. […] (A) Cells from TEX, OCI-AML2 and two primary AML patients were treated with increasing concentrations (2.5 μM and 5 μM) of tigecycline for 36 and 48 hours of tigecycline. Total proteins were extracted and analyzed by western blotting for Cox-1, Cox-2, Cox-4, grp78, XIAP, actin and tubulin. (B) TEX and AML patient cells were treated with increasing concentrations (2.5 μM and 5 μM) of tigecycline. Cox-1, Cox-2, and Cox-4 mRNA expression relative 18S was determined by quantitative RT-PCR. Data is shown as mean±SD. (C) TEX cells were treated with increasing concentrations of tigecycline and chloramphenicol (CAP) for 72 hours. Complex I, II and IV enzyme activity relative to citrate synthase activity was determined as described in materials and methods. (D) Cells from TEX, primary AML patients, and normal donors were treated with increasing concentrations of tigecycline. Mitochondrial membrane potential (Δψ) was determined by staining cells with JC-1 dye, and flow cytometry analysis (Red/Green ratio). Reactive oxygen species generation (ROS) was determined by staining with h2-DCFDA and Dihydroethidium (DHE).

solid tumour cell lines = test: Cell growth and viability, MTS assay, 72 hours; assay type: cell-based
Method: (§5) FIG. 1. […] (A) TEX and (B) M9-ENL1 cells were plated in 96-well plates and drugs were added to the wells (5 μL per well) for final concentrations of 10 μM (shown) and 1 μM. Cell growth and viability was measured at 48 hours (M9-ENL-1) and 72 hours (TEX) by MTS assay. Cell viability is shown for each compound as a percent of cells treated with DMSO alone. (C) Leukemia, (D) myeloma, and (E) solid tumor cell lines were seeded in 96-well plates and then treated with increasing concentrations of tigecycline. Cell growth and viability was measured at 72 hours by MTS assay. Cell viability is expressed as mean percentage plus or minus SD (n=3) relative to vehicle-treated cells. […] Cell viability was measured at 72 hours by MTS assay. Cell viability is expressed as mean percentage plus or minus SD (n=3) relative to vehicle-treated cells.
(§6) Human leukemia (OCI-AML2, HL60, U937) cell lines were maintained in RPMI 1640 medium. Myeloma (LP-1, KMS11, 8226, JJN3, OP-M2) cell lines were maintained in Iscove's media. Ovarian (OVCAR), prostate (PC3), and lung alveolar (A549) cell lines were maintained in RPMI 1640 medium. Media was supplemented with 10% fetal calf serum (FCS), […] (all from Hyclone, Logan, Utah). TEX cells were maintained in IMDM, 15% FBS, 2 mM L-glutamine, 1%, penicillin-streptomycin, 20 ng/mL SCF, 2 ng/mL IL-3. M9-ENL1 cells were maintained in alpha-MEM, 20% FBS, 5% human plasma, 2 mM L-glutamine, 1%, penicillin-streptomycin, 100 ng/mL SCF, 10 ng/mL IL-3, 5 ng/mL IL-7, and 5 ng/mL FLT3L. All cells were incubated at 37° C. in a humidified air atmosphere supplemented with 5% CO2.
as §3

leukemia cell lines = test: Cell growth and viability, MTS assay, 72 hours; assay type: cell-based; details: tested leukemia cell lines
Method: as §5, §6, §3

myeloma cell lines = test: Cell growth and viability, MTS assay, 72 hours; assay type: cell-based
Method: as §5, §6, §3

[4] = cited from earlier work

Question: For `CN(C)c1cc(NC(=O)CNC(C)(C)C)c(O)c2c1C[C@H]1C[C@H]3[C@H](N(C)C)C(O)=C(C(N)=O)C(=O)[C@@]3(O)C(O)=C1C2=O` [tigecycline], which LD50 [1] is on record?
Answer: Its LD50 is greater than 10 µM.

Question: And the LD50 ([2]; more resistant group of patients, n=7, 48 hours)?
Answer: The LD50 was greater than 9 µM.

Question: And the LD50 ([2]; sensitive subset of leukemia patients, n=13, 48 hours)?
Answer: Its LD50 is 5 µM.

Question: What about the “Cox-1, Cox-2, Cox-4 mRNA expression relative 18S” value [3] of the same compound?
Answer: Its value is “preferential increased mRNA expression of mitochondrial-encoded genes Cox-1, Cox-2, over the nuclear-encoded gene Cox-4”.

Question: What about the IC50 (solid tumour cell lines) of the same compound?
Answer: Its IC50 is greater than 10 µM.

Question: And the IC50 (leukemia cell lines)?
Answer: The IC50 was 5 to 8 µM.

Question: What about the IC50 (myeloma cell lines) of the same compound?
Answer: Its IC50 is greater than 10 µM.

Question: And the toxicity ([4]; 50 mg intravenously every 12 hours)?
Answer: The toxicity was “without significant toxicity”.

Question: What about the “half life in humans” value ([4]; humans) of the same compound?
Answer: Its value is 27 h.

Question: And the tolerability ([4]; intravenous doses of 300 mg)?
Answer: Its tolerability is “well tolerated save for mild nausea”.
